# Assay results published in patent US8912234B2, “Composition containing resveratrol and/or derivatives thereof and plant oil, process for producing said composition, nutraceutical and/or pharmaceutical product, and method for enhancing the potential of resveratrol” (UNIAO Brasileria de Educacao e Assistencia—Mantenedora da …, priority 2009, dated 2014).
# Assays:
# [1] = test system: edematogenic response caused by CFA; test: Paw edema of chronic inflammation induced by CFA in mice; type: in vivo, male Swiss mice; conditions: 100 mg/kg oral, 1x a day for 7 days, starting 1 week after CFA; mice (FIG. 9)
# Protocol: (§1) To perform the experiments, male Wistar rats (180 to 200 g) or male Swiss mice (25 to 30 g) were used, coming from the animal house of the Federal University of Pelotas (UFPEL; Pelotas, RS). We used 5 to 8 animals per group. The animals were kept in Room 108, located in Block E, of the Vivarium of Building 12, of the PUCRS, on ventilated shelves outfitted with incoming and outgoing air filters (brand Alesco), with controlled temperature (22±1° C.) and light/dark cycle of 12 h (lights turned on at 7:00 a.m.; lights turned off at 7:00 p.m.). Within the shelves, the animals were kept in cages suitable for rodents, filled with pine shavings (changed three times a week). The animals received pelletized ration (brand Nuvilab) and filtered water (filter brand Jojaco) ad libitum. The experiments were conducted in the Applied Pharmacology Laboratory I, located in Block C, Building 12, of the PUCRS. During the experimental procedures, the laboratory temperature was maintained at 22±1° C. […] In this series of experiments, the depressive behavior associated with chronic inflammation in mice was evaluated. […] The increase in volume was measured by plethysmometer, two weeks after the application of the CFA. The difference between the volume of the right and left paws was quantified (in ml) and taken as an indicator of edema. […] The time of immobility was measured for a period of 6 min. […]
# [2] = test system: edema of the paw caused by carrageenan; test: Model of acute inflammation by carrageenan in the paw of rats; type: in vivo, male Wistar rats; conditions: 100 mg/kg oral; for inhibition of the edema caused by carrageenan: therapeutic, 120 min after carrageenan, rats (FIG. 5)
# [3] = test system: depressive behavior associated with the chronic inflammation caused by CFA; test: Depressive behavior associated with chronic inflammation in mice (tail suspension, time of immobility); type: in vivo, male Swiss mice; conditions: 100 mg/kg oral, 1x a day for 7 days, starting 1 week after CFA; immobility over 6 min; mice (FIG. 9)
# Protocol: as §1
# [4] = test system: edema caused by CFA; test: Model of polyarthritis induced by CFA in rats; type: in vivo, male Wistar rats; conditions: 100 mg/kg oral, twice a day for 8 days, from day 14 to 21 after CFA; rats (FIG. 7)
smiles,measurement,setting,value
"Oc1ccc(C=Cc2cc(O)cc(O)c2)cc1 [resveratrol, 3,5,4′-trihydroxystilbene]",percentage of reduction of the edematogenic response caused by CFA,[1],42±4%
same,inhibition of the edema of the paw caused by carrageenan,"[2]; preventive, 30 min prior to carrageenan, vs saline control, rats (FIG. 4)",31±7%
same,inhibition of the edema caused by carrageenan,[2]; at 180 min,35±8%
same,inhibition of the edema caused by carrageenan,[2]; at 240 min,45±9%
same,depressive behavior (time of immobility),[3],expressively reduced
same,inhibition of the formation of edema caused by CFA,[4],17±5%
